Results: the NIST ThermoML archive (doi:10.1021/acs.jced.9b00536)

Test: refractive index (Na D-line) (dimensionless); wn = mass fraction of the nth substance listed
Settings: 100 kPa, Liquid, Standard Abbe refractometry

[Na+].[OH-] [sodium hydroxide] + O
refractive index
Settings | 308.15 K | 313.15 K | 318.15 K | 323.15 K | 328.15 K | 333.15 K
w1 = 0.2 | – | 1.3801 | 1.3795 | 1.3788 | 1.3788 | 1.3794
w1 = 0.21 | – | 1.3825 | 1.3819 | 1.3815 | 1.381 | 1.3812
w1 = 0.22 | – | 1.3851 | 1.3847 | 1.3844 | 1.3836 | 1.3835
w1 = 0.23 | – | 1.3866 | 1.3858 | 1.3853 | 1.3852 | 1.3857
w1 = 0.24 | – | 1.3886 | 1.3877 | 1.3869 | 1.3862 | 1.3847
w1 = 0.25 | – | 1.3917 | 1.391 | 1.3904 | 1.39 | 1.3894
w1 = 0.26 | – | 1.3938 | 1.3931 | 1.3926 | 1.3922 | 1.3915
w1 = 0.27 | – | 1.3955 | 1.3946 | 1.3937 | 1.3929 | 1.3923
w1 = 0.28 | – | 1.3975 | 1.3968 | 1.3961 | 1.3953 | 1.3941
w1 = 0.29 | – | 1.3999 | 1.3989 | 1.3981 | 1.397 | 1.3964
w1 = 0.3 | – | 1.4011 | 1.4002 | 1.3994 | 1.3986 | 1.3977
w1 = 0.31 | – | 1.4033 | 1.4024 | 1.4016 | 1.4008 | 1.3998
w1 = 0.32 | – | 1.4044 | 1.4036 | 1.4025 | 1.4018 | 1.4008
w1 = 0.33 | – | 1.4061 | 1.4051 | 1.4042 | 1.4033 | 1.4024
w1 = 0.34 | – | 1.4086 | 1.4077 | 1.4068 | 1.4058 | 1.4048
w1 = 0.35 | 1.4114 | 1.4105 | 1.4095 | 1.4085 | 1.4076 | 1.4066
w1 = 0.36 | 1.413 | 1.4121 | 1.4111 | 1.4102 | 1.4093 | 1.4083
w1 = 0.37 | 1.4145 | 1.4136 | 1.4126 | 1.4117 | 1.4107 | 1.4098
w1 = 0.38 | 1.4163 | 1.4154 | 1.4145 | 1.4135 | 1.4126 | 1.4116
w1 = 0.39 | 1.418 | 1.417 | 1.416 | 1.4151 | 1.4142 | 1.4133
w1 = 0.4 | 1.4196 | 1.4186 | 1.4177 | 1.4167 | 1.4159 | 1.415
w1 = 0.41 | 1.4206 | 1.4196 | 1.4186 | 1.4177 | 1.4167 | 1.4159
w1 = 0.42 | 1.4221 | 1.4212 | 1.4202 | 1.4192 | 1.4183 | 1.4174
w1 = 0.43 | 1.4236 | 1.4226 | 1.4217 | 1.4207 | 1.4198 | 1.4189
w1 = 0.44 | 1.4245 | 1.4235 | 1.4226 | 1.4217 | 1.4208 | 1.4198
w1 = 0.45 | 1.4258 | 1.425 | 1.4239 | 1.423 | 1.4221 | 1.4212
w1 = 0.46 | 1.4275 | 1.4266 | 1.4256 | 1.4247 | 1.4238 | 1.4229
w1 = 0.47 | 1.4285 | 1.4275 | 1.4266 | 1.4257 | 1.4248 | 1.4239
w1 = 0.48 | 1.4301 | 1.4292 | 1.4282 | 1.4273 | 1.4264 | 1.4255
w1 = 0.49 | 1.4309 | 1.43 | 1.4289 | 1.428 | 1.4271 | 1.4263
w1 = 0.5 | 1.4319 | 1.4311 | 1.4302 | 1.4293 | 1.4284 | 1.4276
